The values that follow come from US11186554B2, “Non-fused tricyclic compounds” (VIVACE THERAPEUTICS, INC., priority 2017, dated 2021).

One test relates to firefly luciferase activity. Nature of the test: Dual-Glo firefly/renilla luciferase reporter assay in cells. It is filed as cell-based. The conditions noted are these: 24 h, read-out: Firefly Luciferase IC50 (μM).
As to `O=C(Cn1nnc(-c2ccccc2Nc2ccc(C(F)(F)F)cc2)n1)C1CC1` [Compound 121, 1-cyclopropyl-2-[5-[2-[4-(trifluoromethyl)anilino]phenyl]tetrazol-2-yl]ethanone], the IC50 lay in the range of 0.1 to 1 µM. As for `COc1ccc(Nc2ccccc2-c2nnn(CCO)n2)cc1` [Compound 12, 2-[5-[2-(4-methoxyanilino)phenyl]tetrazol-2-yl]ethanol], the IC50 fell in the range of 0.1 to 1 µM.

For the compound `COc1ccc(Nc2ccc(C(F)(F)F)cc2)c(-c2nnn(CCO)n2)c1` [Compound 240, 2-[5-[5-methoxy-2-[4-(trifluoromethyl)anilino]phenyl]tetrazol-2-yl]ethanol], the IC50 is below 0.1 µM. Same read-out and setting: the value for `CN(C)CCn1nnc(-c2ccccc2Nc2ccc(C(F)(F)F)cc2)n1` [Compound 50, 2-[2-[2-(dimethylamino)ethyl]tetrazol-5-yl]-N-[4-(trifluoromethyl)phenyl]aniline] was 0.1 to 1 µM; that for `CCOC(=O)Cn1nnc(-c2ccccc2Nc2ccc(F)cc2)n1` [Compound 7, ethyl 2-[5-[2-(4-fluoroanilino)phenyl]tetrazol-2-yl]acetate] was 0.1 to 1 µM. Same read-out and setting: next, `OCCn1nnc(-c2cc(OC(F)(F)F)ccc2Nc2ccc(C(F)(F)F)cc2)n1` [Compound 261, 2-(5-(5-(trifluoromethoxy)-2-((4-(trifluoromethyl)phenyl)amino)phenyl)-2H-tetrazol-2-yl)ethanol]: 0.1 to 1 µM.

The same test, now with this note: 24 hrs compound treatment, starting from 3 uM, 1:3 dilution, 10 points; read-out: Firefly Luciferase IC50.
Consider `OCCn1nnc(-c2ccccc2Nc2ccc(Cl)c(Cl)c2)n1` [Compound 251, 2-(5-(2-((3,4-dichlorophenyl)amino)phenyl)-2H-tetrazol-2-yl)ethanol], for which the IC50 lay in the range of 0.1 to 1 µM.

For the compound `NCCn1nnc(-c2ccccc2Nc2ccc(C(F)(F)F)cc2)n1` [Compound 228, 2-(2-(2-aminoethyl)-2H-tetrazol-5-yl)-N-(4-(trifluoromethyl)phenyl)aniline], the half-inhibitory concentration (IC50) lay in the range of 0.1 to 1 µM. As to `OCCn1nnc(-c2cc(C3CC3)ccc2Nc2ccc(C(F)(F)F)cc2)n1` [Compound 255, 2-(5-(5-cyclopropyl-2-((4-(trifluoromethyl)phenyl)amino)phenyl)-2H-tetrazol-2-yl)ethanol], the IC50 was below 0.1 µM. As to `NC(=O)OCCn1nnc(-c2ccccc2Nc2ccc(C(F)(F)F)cc2)n1` [Compound 124, 2-[5-[2-[4-(trifluoromethyl)anilino]phenyl]tetrazol-2-yl]ethyl carbamate], the IC50 was below 0.1 µM.

For the compound `CC(=O)NCCCn1nnc(-c2ccccc2Nc2ccc(C(F)(F)F)cc2)n1` [Compound 111, N-[3-[5-[2-[4-(trifluoromethyl)anilino]phenyl]tetrazol-2-yl]propyl]acetamide], the IC50 fell in the range of 0.1 to 1 µM.

With `OC1(Cn2nnc(-c3ccccc3Nc3ccc(C(F)(F)F)cc3)n2)CCCC1` [Compound 152, 1-((5-(2-((4-(Trifluoromethyl)phenyl)amino)phenyl)-2H-tetrazol-2-yl)methyl)cyclopentanol], the half-inhibitory concentration (IC50) is below 0.1 µM. Take `OC1(Cn2nnc(-c3ccccc3Nc3ccc(C(F)(F)F)cc3)n2)CCNCC1` [Compound 135, 4-[[5-[2-[4-(trifluoromethyl)anilino]phenyl]tetrazol-2-yl]methyl]piperidin-4-ol]: the IC50 lay within 1 to 5 µM. For `OC1(Cn2nnc(-c3ccccc3Nc3ccc(C(F)(F)F)cc3)n2)CCOC1` (stereo not drawn) [Compound 151, 3-[[5-[2-[4-(trifluoromethyl)anilino]phenyl]tetrazol-2-yl]methyl]tetrahydro furan-3-ol], the IC50 was below 0.1 µM. For the compound `OCC(CO)n1nnc(-c2ccccc2Nc2ccc(C(F)(F)F)cc2)n1` [Compound 264, 2-(5-(2-((4-(trifluoromethyl)phenyl)amino)phenyl)-2H-tetrazol-2-yl)propane-1,3-diol], the IC50 is below 0.1 µM.

Turning to `O[C@H]1CCC[C@H]1n1nnc(-c2ccccc2Nc2ccc(C(F)(F)F)cc2)n1` [Compound 201, (1S,2R)-2-(5-(2-((4-(trifluoromethyl)phenyl)amino)phenyl)-2H-tetrazol-2-yl)cyclopentan-1-ol], the half-inhibitory concentration (IC50) is below 0.1 µM.

Take `OC1(Cn2nnc(-c3ccccc3Nc3ccc(C(F)(F)F)cc3)n2)CNC1` [Compound 157, 3-[[5-[2-[4-(trifluoromethyl)anilino]phenyl]tetrazol-2-yl]methyl]azetidin-3-ol]: the IC50 is 0.1 to 1 µM. In the case of `FC(F)(F)OCCn1nnc(-c2ccccc2Nc2ccc(C(F)(F)F)cc2)n1` [Compound 185, 2-(2-(2-(trifluoromethoxy)ethyl)-2H-tetrazol-5-yl)-N-(4-(trifluoromethyl)phenyl)aniline], the IC50 fell in the range of 0.1 to 1 µM. Consider `CC(CO)c1nc(-c2ccccc2Nc2ccc(C(F)(F)F)cc2)nn1C` (stereo not drawn) [Compound 206, 2-(1-methyl-3-(2-((4-(trifluoromethyl)phenyl)amino)phenyl)-1H-1,2,4-triazol-5-yl)propan-1-ol], for which the IC50 fell in the range of 1 to 5 µM. On to `OCCn1cc(-c2ccccc2Nc2ccc(C(F)(F)F)cc2)nn1` [Compound 191, 2-(4-(2-((4-(trifluoromethyl)phenyl)amino)phenyl)-1H-1,2,3-triazol-1-yl)ethan-1-ol], for which the concentration for half-maximal inhibition (IC50) was below 0.1 µM.

Consider `FC(F)(F)c1ccc(Nc2ccccc2-c2nnn(C3COCOC3)n2)cc1` [Compound 263, 2-(2-(1,3-dioxan-5-yl)-2H-tetrazol-5-yl)-N-(4-(trifluoromethyl)phenyl)aniline], for which the IC50 was below 0.1 µM. Consider `O=C1N[C@H](Cn2nnc(-c3ccccc3Nc3ccc(C(F)(F)F)cc3)n2)CO1` [Compound 158, (R)-4-((5-(2-((4-(trifluoromethyl)phenyl)amino)phenyl)-2H-tetrazol-2-yl)methyl)oxazolidin-2-one], for which the IC50 lay in the range of 0.1 to 1 µM. Same read-out and setting: the value for `O[C@@H]1CCC[C@@H]1n1nnc(-c2ccccc2Nc2ccc(C(F)(F)F)cc2)n1` [Compound 200, (1R,2S)-2-(5-(2-((4-(trifluoromethyl)phenyl)amino)phenyl)-2H-tetrazol-2-yl)cyclopentan-1-ol] was 0.1 to 1 µM; that for `CC(CO)n1nnc(-c2ccccc2Nc2ccc(C(F)(F)F)cc2)n1` (stereo not drawn) [Compound 125, 2-[5-[2-[4-(trifluoromethyl)anilino]phenyl]tetrazol-2-yl]propan-1-ol] was below 0.1 µM.

For orientation: IC50 means the concentration that gives 50% inhibition.
